Data taken from patent EP0277849A1, “Incorporation of one or more lipophilic, active principles into lipoproteins, lipoproteins obtained and pharmaceutical compositions containing them” (IRE-CELLTARG S.A., priority 1987, dated 1988).
Read-outs that look alike come from different tables or passages of the source.

Assays:
[1] = Incorporation of cytotoxic agent into LDL with submicellar NaDOC; type: physicochemical
Method: Les LDL isolées sur sépharose CL-4B sont dialysées pendant 24 heures à 4° C contre un tampon C.
L'agent thérapeutique est solubilisé dans un solvant organique à raison de 1 mg par ml. 100 µL de cette solution sont évaporés sous Argon dans un tube à essai. On ajoute au résidu sec, 2 ml de la solution de LDL et du NaDOC de façon à atteindre une concentration finale de 1 à 5 mM selon l'agent thérapeutique considéré. […]
Au terme de l'incubation, l'échantillon est filtré sur un filtre Millipore 0,45 µm. Le NaDOC est ensuite éliminé par chromatographie sur gel P6 (Biorard®) préalablement équilibré avec un tampon C.
La concentration en ApoB et en agent thérapeutique est déterminée sur chaque fraction.Les fractions correspondant aux LDL sont mises en commun et dialysées contre un tampon τrisHCl 10 mM NaCI 0,15 M EDTA 0,3 mM pH 7,4 pendant 24 heures à 4°C.
L'ensemble du procédé décrit en IV-1 a été appliqué à un dérivé VINCA ALCALOIDE liposoluble : le "C91 base": (4-désacétyl-vinblastine C-3N-dodécyl-carboxamide). La concentration en NaDOC utilisée lors de l'incubation a été ajustée à 2 mM final.
Si on précipite sélectivement les LDL, plus de 99 % du C91 base se retrouve dans le culot. On confirme ainsi que l'agent thérapeutique est bien associé aux LDL. On appellera cette préparation : LDL-C91. […]

Candida tropicalis = assay: Intracellular infection model: J77468 macrophages infected with Candida tropicalis; type: cell-based; settings: 2 % de sérum de veau foetal
Method: (§1) La lignée continue de macrophages J77468 d'origine murine provient d'un clonage de la souche J774 ATCC, et est cultivée en milieu RPMI 1640 additionné de glutamine 2 mM, 10% de sérum de veau foetal (décomplémenté 60 min. à 56°) et de 10 mM Hepes (pH 7.2). Une suspension de 5 10^6 cellules/ml sont infectées avec une culture de Candida tropicalis (5 10^5 levures/ml) provenant d'une culture de nuit dans de la casitone. Le milieu d'infection utilisé est du RPMI contenant 2 % de sérum de veau nouveau-né et 10 mM Hepes (pH 7.2).
(§2) Après 3 h d'incubation à 37° dans un mélange d'air 10 % C02, la phagocytose des levures est complète. La suspension cellulaire macrophages-Candida est centrifugée, lavée abondamment et répartie à raison de 10^5 macrophages infectés/alvéole dans des boîtes à 24 alvéoles contenant une lamelle de verre (diamètre 14 mm). Après 3 h de phagocytose (To), sur 100 macrophages, 32 contiennent de 1 à 6 Candida/macrophage, l'infection moyenne étant de 2 Candida/macrophage.
(§3) Toutes les levures ont été phagocytées sauf rares exceptions (estimation au microscope optique après coloration au May-Grünwald Giemsa). Douze concentrations différentes des drogues de référence et des drogues encapsulées dans les LDL sont distribuées dans les boîtes contenant les macrophages infectés.
(§4) L'évaluation de l'efficacité d'une drogue se fait à chaque concentration. Testées après 18 h d'incubation (37°, dans un mélange air-10 % C02), les levures se multiplient d'abord au sein des cellules hôtes, puis dans le milieu extracellulaire. Le taux de macrophages infectés est alors de 75 % chez les témoins. Une cellule peut contenir de 1 à plus de 20 Candida/cellule, la majorité contient de 2 à 6 levures/cellule. Le milieu de culture contient 10^8 Candida extracellulaires/ml (comptage dans une cellule de Burker).
L'activité d'une drogue encapsulée ou non dans les LDL ou Ac-LDL par rapport à un antifongique de référence, le kétoconazole (K), est déterminé par la concentration micromolaire en drogue réduisant de 50 % le nombre de macrophages infectés par les Candida (=C150). Signalons que parallèlement à la réduction au cours du traitement, du taux de cellules infectées, le nombre de Candida par macrophage infecté diminue fortement (de 1 à 3 levures/cellule).
Le milieu de culture est RPMI + glutamine 2 mM + Hepes 10 mM + 2 % de sérum de veau foetal.

macrophages J77468 = assay: Toxicity for J77468 macrophages (MTT reduction); type: cell-based, murine; settings: for % de viabilité cellulaire*: 18 h, MTT
Method: as §1
La viabilité des macrophages J77468 cultivés dans du milieu contenant l'agent antifongique encapsulé ou non dans les LDL figure au Tableau 5. K et K01 sont toxiques aux concentrations nécessaires pour réduire de 50 % l'infection intracellulaire (C1250) contrairement au LDL-K01 pour lequel aucune toxicité n'a pu être détectée.

C. tropicalis = assay: Extracellular infection in the infected-macrophage model; type: cell-based; settings: Candida tropicalis, read-out: CIext50^(a)
Method: as §1, §2, §3, §4
L'action des AF encapsulés sur une infection extracellulaire peut être évaluée de deux manières : d'une part en déterminant le nombre de Candida extracellulaires dans un modèle d'infection intracellulaire (voir VIII § 1.1.), d'autre part en mesurant la concentration minimale inhibitrice (CMI) de ces composés par la méthode de dilutions successives dans des boîtes à multipuits (milieu RPMI).

[2] = Incorporation of antifungal agent into LDL by NaDoc dissociation-reconstitution; type: physicochemical; settings: 1,6 mg LDL, 482 µg of agent, dialysis
Method: On ajoute à 1,6 mg de LDL préalablement dialysées contre le tampon C, 10 mg de NaDoc solide et on laisse réagir 30 minutes à température ambiante. On ajoute à la préparation 2,8 ml d'une solution NaDoc 20 mM, Na2COs 50 mM, NaCi 50 mM, pH 10 contenant 482 µg de CT4000A ou 482 µg de CT040013. Les échantillons sont dialysés à 4° C contre trois fois 1 litre de tampon B.
Le pourcentage de récupération en LDL, en CT040013 et en NaDoc est déterminé au terme du processus de reconstitution (figure 13).
Il est également possible de rapporter la masse de substance incorporée par mole de LDL. Les résultats obtenus pour le CT04000A et la CT040013 sont respectivement de 0,4 et de 208 moles incorporés par mole de LDL.

Molecule | nombre de molécules de drogue incorporées par molécule de LDL ([1]; 2 mM en NaDOC, temps d'incubation de 60 heures (3 heures à 25° C + 57 heures à 4°C)) | part retrouvée dans le culot après précipitation sélective des LDL ([1]; NaDOC 2 mM) | CI50 K/AF (Candida tropicalis) | IC50 (Candida tropicalis; Candida tropicalis, Macrophage, micromolar concentration reducing infected macrophages by 50 %, 18 h, read-out: CI50 (the source's name)) | toxicité aux concentrations nécessaires pour réduire de 50 % l'infection intracellulaire (macrophages J77468) | % de viabilité cellulaire* (macrophages J77468; Concentration 0,78 µM) | % de viabilité cellulaire* (macrophages J77468; Concentration 1,56 µM) | % de viabilité cellulaire* (macrophages J77468; Concentration 3,13 µM) | % de viabilité cellulaire* (macrophages J77468; Concentration 6,25 µM) | % de viabilité cellulaire* (macrophages J77468; Concentration 12,50 µM) | % de viabilité cellulaire* (macrophages J77468; Concentration 25,00 µM) | % de viabilité cellulaire* (macrophages J77468; Concentration 50,00 µM) | % de viabilité cellulaire* (macrophages J77468; Concentration 100,00 µM, versus untreated control) | IC50 (C. tropicalis; addition de 2 % Pl.H. (plasma humain)) | IC50 (C. tropicalis; addition de 2 % SVF (sérum de veau foetal)) | moles incorporés par mole de LDL [2]
4-désacétyl-vinblastine C-3N-dodécyl-carboxamide [C91 base] | 70 | > 99% | – | – | – | – | – | – | – | – | – | – | – | – | – | –
CC(=O)N1CCN(c2ccc(OC[C@H]3CO[C@](Cn4ccnc4)(c4ccc(Cl)cc4Cl)O3)cc2)CC1 [K, reference compound] | – | – | 1 | 52300 nM | toxiques | 85,16% | 86,67% | 64,56% | 50,52% | 16,40% | 3,16% | 3,50% | 1,75% | 100 nM | 100 nM | 0,4 moles incorporés par mole de LDL
